For 12 compounds, IC50 results are on record in patent US11111247B2, “Pyrazolopyrimidine compounds and uses thereof” (Incyte Corporation, priority 2018, dated 2021).

The target of one assay is ALK2 (aa 147-end) (Homo sapiens (Human), UniProt Q04771). Nature of the assay: ALK2 HTRF Assay. The assay is classed as biochemical.
The target in another assay is ALK2 (Homo sapiens (Human), UniProt Q04771). Nature of the assay: ALK2 Cellular Assay (phospho SMAD1 HTRF, BMP-7 stimulated HeLa cells). The assay is classed as cell-based. The settings on record: read-out: ALK2 Cellular Assay PSMAD. Put shortly: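 HeLa cells pre-treated with compound (highest final 3 μM) for 60 min at 37° C, then stimulated with 200 ng/ml BMP-7 for 30 min. Phospho-SMAD1 (S463/S465) quantified by HTRF after overnight room-temperature incubation.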
ALK2, sequence (Q04771 21-509): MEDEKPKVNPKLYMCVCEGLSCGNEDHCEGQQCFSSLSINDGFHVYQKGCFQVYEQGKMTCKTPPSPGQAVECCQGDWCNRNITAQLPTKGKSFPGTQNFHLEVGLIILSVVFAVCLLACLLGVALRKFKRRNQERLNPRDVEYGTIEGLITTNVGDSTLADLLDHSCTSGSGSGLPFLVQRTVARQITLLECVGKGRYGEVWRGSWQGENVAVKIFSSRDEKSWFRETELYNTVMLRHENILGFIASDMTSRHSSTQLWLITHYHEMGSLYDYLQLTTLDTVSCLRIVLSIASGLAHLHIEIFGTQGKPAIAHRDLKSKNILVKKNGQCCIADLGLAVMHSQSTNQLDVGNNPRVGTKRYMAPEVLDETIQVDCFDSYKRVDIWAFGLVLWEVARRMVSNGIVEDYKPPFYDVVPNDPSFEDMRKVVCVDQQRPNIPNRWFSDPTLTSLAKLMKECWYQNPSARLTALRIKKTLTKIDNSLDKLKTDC

The next assay concerns the target FGFR3 (UP) (Homo sapiens (Human), UniProt P22607). Nature of the assay: FGFR Enzymatic Assay, FGFR3 un-phosphorylated.
The target in a further assay is FGFR1 (UP) (Homo sapiens (Human), UniProt P11362). Nature of the assay: FGFR Enzymatic Assay, FGFR1 un-phosphorylated.
FGFR1 (UP), sequence (P11362 22-822): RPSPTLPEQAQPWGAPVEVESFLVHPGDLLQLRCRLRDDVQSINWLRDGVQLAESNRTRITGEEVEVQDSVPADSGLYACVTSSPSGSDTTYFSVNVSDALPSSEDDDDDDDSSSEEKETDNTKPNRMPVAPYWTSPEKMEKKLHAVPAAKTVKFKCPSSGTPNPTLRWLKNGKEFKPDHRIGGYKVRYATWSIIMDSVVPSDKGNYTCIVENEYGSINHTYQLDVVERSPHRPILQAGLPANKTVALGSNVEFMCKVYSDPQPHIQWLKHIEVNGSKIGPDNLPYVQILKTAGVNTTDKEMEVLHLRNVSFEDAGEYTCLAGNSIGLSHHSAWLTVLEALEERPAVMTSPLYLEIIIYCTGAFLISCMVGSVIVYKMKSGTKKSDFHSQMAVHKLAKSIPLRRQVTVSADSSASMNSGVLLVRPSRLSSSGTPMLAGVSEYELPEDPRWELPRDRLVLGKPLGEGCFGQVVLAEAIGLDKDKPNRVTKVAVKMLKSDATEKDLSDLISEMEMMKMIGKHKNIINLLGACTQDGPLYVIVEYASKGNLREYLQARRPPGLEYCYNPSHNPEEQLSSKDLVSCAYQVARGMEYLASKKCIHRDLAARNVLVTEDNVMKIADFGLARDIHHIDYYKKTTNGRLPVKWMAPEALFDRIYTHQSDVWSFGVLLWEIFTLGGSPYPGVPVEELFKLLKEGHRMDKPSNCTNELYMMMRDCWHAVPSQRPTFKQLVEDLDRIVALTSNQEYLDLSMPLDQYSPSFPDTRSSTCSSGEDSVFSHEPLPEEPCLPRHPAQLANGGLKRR
A further assay has as its target FGFR2 (UP) (Homo sapiens (Human), UniProt P21802). Nature of the assay: FGFR Enzymatic Assay, FGFR2 un-phosphorylated.
Where [1] appears, read: read-out: ALK2 3 μM IC50, 3 uM ATP.
Setting [2] is: read-out: ALK2 100 μM IC50, 100 uM ATP.
[3] abbreviates: HeLa cells, 200 ng/ml BMP-7, Phospho SMAD1 (S463/S465) HTRF.
Where [4] appears, read: read-out: ALK2 1 mM IC50, 1 mM ATP.
Where [5] appears, read: read-out: FGFR1 (UP) IC50, un-phosphorylated enzyme, ATP near or below Km.
Setting [6] is: read-out: FGFR3 (UP) IC50, un-phosphorylated enzyme, ATP near or below Km.
Setting [7] is: read-out: FGFR2 (UP) IC50, un-phosphorylated enzyme, ATP near or below Km.

Like-named read-outs stand apart in the source and are kept apart here.

FGFR3 (UP), sequence (P22607 23-806): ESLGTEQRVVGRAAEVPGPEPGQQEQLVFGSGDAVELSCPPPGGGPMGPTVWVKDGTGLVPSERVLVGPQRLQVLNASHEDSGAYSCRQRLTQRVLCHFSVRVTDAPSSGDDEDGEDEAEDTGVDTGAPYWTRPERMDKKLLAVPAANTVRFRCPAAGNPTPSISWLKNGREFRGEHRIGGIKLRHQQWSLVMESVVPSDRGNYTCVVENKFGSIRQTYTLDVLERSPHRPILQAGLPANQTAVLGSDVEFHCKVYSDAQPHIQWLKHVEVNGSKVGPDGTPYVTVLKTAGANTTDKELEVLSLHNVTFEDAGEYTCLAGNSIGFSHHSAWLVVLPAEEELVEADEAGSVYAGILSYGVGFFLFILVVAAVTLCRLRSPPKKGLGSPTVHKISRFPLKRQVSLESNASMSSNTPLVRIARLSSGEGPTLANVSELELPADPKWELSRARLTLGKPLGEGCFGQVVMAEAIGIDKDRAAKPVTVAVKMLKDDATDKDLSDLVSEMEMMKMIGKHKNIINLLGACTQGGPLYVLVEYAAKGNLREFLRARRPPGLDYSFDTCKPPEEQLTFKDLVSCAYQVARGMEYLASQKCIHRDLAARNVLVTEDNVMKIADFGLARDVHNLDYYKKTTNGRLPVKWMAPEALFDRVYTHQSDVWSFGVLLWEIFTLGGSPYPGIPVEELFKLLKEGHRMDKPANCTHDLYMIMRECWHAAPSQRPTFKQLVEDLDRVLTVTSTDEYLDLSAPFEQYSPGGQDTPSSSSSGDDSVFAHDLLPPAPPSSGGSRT
ALK2 (aa 147-end), sequence (Q04771 147-509): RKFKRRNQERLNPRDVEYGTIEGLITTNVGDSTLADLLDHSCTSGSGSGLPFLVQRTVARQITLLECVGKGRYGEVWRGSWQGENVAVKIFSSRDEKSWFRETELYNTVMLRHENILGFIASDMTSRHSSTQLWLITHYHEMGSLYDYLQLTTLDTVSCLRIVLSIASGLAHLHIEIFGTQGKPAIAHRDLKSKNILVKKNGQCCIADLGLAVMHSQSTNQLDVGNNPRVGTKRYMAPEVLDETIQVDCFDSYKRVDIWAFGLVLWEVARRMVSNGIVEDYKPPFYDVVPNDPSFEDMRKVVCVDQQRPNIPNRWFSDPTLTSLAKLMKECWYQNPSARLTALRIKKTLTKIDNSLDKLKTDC
FGFR2 (UP), sequence (P21802 22-821): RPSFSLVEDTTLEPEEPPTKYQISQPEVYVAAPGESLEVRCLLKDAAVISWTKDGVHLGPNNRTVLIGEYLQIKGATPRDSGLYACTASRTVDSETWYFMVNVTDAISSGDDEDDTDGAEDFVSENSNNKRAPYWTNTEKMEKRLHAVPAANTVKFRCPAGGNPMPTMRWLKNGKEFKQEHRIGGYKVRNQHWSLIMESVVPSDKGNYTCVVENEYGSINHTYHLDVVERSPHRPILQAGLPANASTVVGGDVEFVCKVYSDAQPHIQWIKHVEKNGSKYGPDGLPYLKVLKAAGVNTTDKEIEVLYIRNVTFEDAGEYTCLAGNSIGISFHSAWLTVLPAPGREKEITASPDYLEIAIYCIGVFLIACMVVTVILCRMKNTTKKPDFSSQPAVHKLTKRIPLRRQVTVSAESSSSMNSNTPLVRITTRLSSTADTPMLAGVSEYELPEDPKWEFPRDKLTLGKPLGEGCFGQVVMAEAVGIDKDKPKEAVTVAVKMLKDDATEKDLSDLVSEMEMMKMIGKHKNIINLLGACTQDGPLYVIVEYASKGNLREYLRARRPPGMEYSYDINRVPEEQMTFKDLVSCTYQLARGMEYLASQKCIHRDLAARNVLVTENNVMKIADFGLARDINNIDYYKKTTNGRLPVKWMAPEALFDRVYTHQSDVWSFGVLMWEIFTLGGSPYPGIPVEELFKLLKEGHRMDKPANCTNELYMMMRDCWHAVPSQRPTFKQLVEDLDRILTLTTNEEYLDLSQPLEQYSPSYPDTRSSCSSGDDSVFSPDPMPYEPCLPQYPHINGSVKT

As for `C[C@@H]1CN(c2ccc(-c3n[nH]c4cnc(N5C6CCC5CC6)nc34)cn2)CCN1` [Example 3, 5-(7-Azabicyclo[2.2.1]heptan-7-yl)-3-(6-((R)-3-methylpiperazin-1-yl)pyridin-3-yl)-1H-pyrazolo[4,3-d]pyrimidine], the IC50 against ALK2 (aa 147-end) (ALK2 1 mM IC50, 1 mM ATP) was 100 to 500 nM; at ALK2 (aa 147-end) (setting [1]) it was less than 100 nM; on ALK2 (aa 147-end) (setting [2]) it was less than 100 nM; at ALK2 (setting [3]), 100 to 500 nM; at FGFR3 (UP), 100 to 500 nM; against FGFR1 (UP), 500 to 2000 nM. For the same compound, on FGFR2 (UP), the IC50 was in the range of 100 to 500 nM.
Consider `COCC(=O)N1C[C@@H](C)N(c2ncc3[nH]nc(-c4ccc(N5CCN[C@H](C)C5)nc4)c3n2)[C@@H](C)C1` [Example 6, 1-((3R,5S)-3,5-Dimethyl-4-(3-(6-((R)-3-methylpiperazin-1-yl)pyridin-3-yl)-1H-pyrazolo[4,3-d]pyrimidin-5-yl)piperazin-1-yl)-2-methoxyethan-1-one], for which the IC50 on ALK2 (aa 147-end) (setting [1]) is less than 100 nM; on ALK2 (aa 147-end) (setting [2]) it was less than 100 nM; at ALK2 (aa 147-end) (setting [4]), less than 100 nM; on ALK2 (setting [3]), 100 to 500 nM; against FGFR3 (UP), 500 to 2000 nM; on FGFR1 (UP) (setting [5]) it was greater than 2000 nM. The compound also displayed an IC50 at FGFR2 (UP) of 500 to 2000 nM.
Consider `C[C@@H]1CN(c2ccc(-c3n[nH]c4cnc(N5[C@H](C)CN(C(=O)N6CCC(F)C6)C[C@@H]5C)nc34)cn2)CCN1` (stereo partly drawn) [Example 10, ((3R,5S)-3,5-Dimethyl-4-(3-(6-((R)-3-methylpiperazin-1-yl)pyridin-3-yl)-1H-pyrazolo[4,3-d]pyrimidin-5-yl)piperazin-1-yl)(3-fluoropyrrolidin-1-yl)methanone], for which the IC50 was less than 100 nM on ALK2 (aa 147-end) (setting [1]); less than 100 nM on ALK2 (aa 147-end) (setting [2]); less than 100 nM at ALK2 (aa 147-end) (setting [4]); less than 100 nM on ALK2 (setting [3]); 500 to 2000 nM at FGFR3 (UP); 500 to 2000 nM at FGFR1 (UP). For the same compound, the IC50 against FGFR2 (UP) is 500 to 2000 nM.
As to `CCOC(=O)N1C[C@@H](C)N(c2ncc3[nH]nc(-c4ccc(N5CCN[C@H](C)C5)nc4)c3n2)[C@@H](C)C1` [Example 11, Ethyl (3R,5S)-3,5-dimethyl-4-(3-(6-((R)-3-methylpiperazin-1-yl)pyridin-3-yl)-1H-pyrazolo[4,3-d]pyrimidin-5-yl)piperazine-1-carboxylate], the IC50 at ALK2 (aa 147-end) (setting [1]) is less than 100 nM; on ALK2 (aa 147-end) (setting [2]), less than 100 nM; on ALK2 (aa 147-end) (setting [4]) it was less than 100 nM; at ALK2 (setting [3]), 100 to 500 nM; on FGFR3 (UP) it was 500 to 2000 nM; at FGFR1 (UP), 500 to 2000 nM. For the same compound, on FGFR2 (UP), the IC50 lay within 500 to 2000 nM.
For `C[C@@H]1CN(c2ccc(-c3n[nH]c4cnc(N5[C@H](C)CN(C(=O)OCCF)C[C@@H]5C)nc34)cn2)CCN1` [Example 12, 2-Fluoroethyl (3R,5S)-3,5-dimethyl-4-(3-(6-((R)-3-methylpiperazin-1-yl)pyridin-3-yl)-1H-pyrazolo[4,3-d]pyrimidin-5-yl)piperazine-1-carboxylate], the IC50 at ALK2 (aa 147-end) (setting [1]) is less than 100 nM; at ALK2 (aa 147-end) (setting [2]) it was less than 100 nM; on ALK2 (aa 147-end) (setting [4]), less than 100 nM; at ALK2 (setting [3]), less than 100 nM; against FGFR3 (UP), 100 to 500 nM; against FGFR1 (UP) it was 500 to 2000 nM. The compound also had an IC50 against FGFR2 (UP) of 100 to 500 nM.
For the compound `C[C@@H]1CN(c2ccc(-c3n[nH]c4cnc(N5[C@@H]6CC[C@H]5CN(C(=O)C5CC5)C6)nc34)cn2)CCN1` [Example 13, Cyclopropyl((1R,5S)-8-(3-(6-((R)-3-methylpiperazin-1-yl)pyridin-3-yl)-1H-pyrazolo[4,3-d]pyrimidin-5-yl)-3,8-diazabicyclo[3.2.1]octan-3-yl)methanone], the IC50 against ALK2 (aa 147-end) (ALK2 1 mM IC50, 1 mM ATP) was 100 to 500 nM; at ALK2 (aa 147-end) (setting [1]) it was less than 100 nM; on ALK2 (aa 147-end) (setting [2]), less than 100 nM; on ALK2 it was 100 to 500 nM; against FGFR3 (UP) it was 100 to 500 nM; on FGFR1 (UP), 500 to 2000 nM. Also, on FGFR2 (UP), the IC50 lay within 100 to 500 nM.
`C[C@@H]1CN(c2ccc(-c3n[nH]c4cnc(N5[C@@H]6CC[C@H]5CN(C(=O)N5CCCC5)C6)nc34)cn2)CCN1` [Example 14, ((1R,5S)-8-(3-(6-((R)-3-Methylpiperazin-1-yl)pyridin-3-yl)-1H-pyrazolo[4,3-d]pyrimidin-5-yl)-3,8-diazabicyclo[3.2.1]octan-3-yl)(pyrrolidin-1-yl)methanone]: the IC50 against ALK2 (aa 147-end) (ALK2 1 mM IC50, 1 mM ATP) is 100 to 500 nM; at ALK2 (aa 147-end) (setting [1]), less than 100 nM; on ALK2 (aa 147-end) (setting [2]), less than 100 nM; at ALK2, 100 to 500 nM; on FGFR3 (UP) (setting [6]), greater than 2000 nM; at FGFR1 (UP) (setting [5]), greater than 2000 nM. In addition, the IC50 at FGFR2 (UP) (setting [7]) is greater than 2000 nM.
For `C[C@@H]1CCC[C@H](C)N1c1ncc2[nH]nc(-c3ccc(N4CCN(C)CC4)cc3)c2n1` [Example 16, 5-((2R,6S)-2,6-Dimethylpiperidin-1-yl)-3-(4-(4-methylpiperazin-1-yl)phenyl)-1H-pyrazolo[4,3-d]pyrimidine], the IC50 against ALK2 (aa 147-end) (ALK2 1 mM IC50, 1 mM ATP) was 100 to 500 nM; on ALK2 (aa 147-end) (setting [1]), less than 100 nM; on ALK2 (setting [3]) it was 500 to 2000 nM; against FGFR3 (UP), 100 to 500 nM; on FGFR1 (UP), 100 to 500 nM; on FGFR2 (UP) it was 100 to 500 nM.
`COC(=O)N1C[C@@H](C)N(c2ncc3[nH]nc(-c4ccc(N5CCN[C@H](C)C5)nc4)c3n2)[C@@H](C)C1` [Example 17, Methyl (3R,5S)-3,5-dimethyl-4-(3-(6-((R)-3-methylpiperazin-1-yl)pyridin-3-yl)-1H-pyrazolo[4,3-d]pyrimidin-5-yl)piperazine-1-carboxylate]: the IC50 at ALK2 (aa 147-end) (setting [1]), at ALK2 (aa 147-end) (setting [2]), on ALK2 (aa 147-end) (setting [4]), on ALK2 (setting [3]), at FGFR3 (UP) (setting [6]) and on FGFR2 (UP) (setting [7]) was less than 100 nM throughout.
As for `C[C@@H]1CN(c2ccc(-c3n[nH]c4cnc(N5CC6CCC5CN6C(=O)N5CCCC5)nc34)cn2)CCN1` (stereo partly drawn) [Example 20, (5-(3-(6-((R)-3-Methylpiperazin-1-yl)pyridin-3-yl)-1H-pyrazolo[4,3-d]pyrimidin-5-yl)-2,5-diazabicyclo[2.2.2]octan-2-yl)(pyrrolidin-1-yl)methanone], the IC50 was 100 to 500 nM on ALK2 (aa 147-end) (ALK2 1 mM IC50, 1 mM ATP); less than 100 nM at ALK2 (aa 147-end) (setting [1]); less than 100 nM on ALK2 (aa 147-end) (setting [2]); 100 to 500 nM on ALK2 (setting [3]); greater than 2000 nM on FGFR3 (UP) (setting [6]); 500 to 2000 nM against FGFR1 (UP). The compound also had an IC50 at FGFR2 (UP) of 500 to 2000 nM.
In the case of `C[C@@H]1CN(c2ccc(-c3n[nH]c4cnc(N5C[C@@H]6C[C@H]5CN6C(=O)N5CCCC5)nc34)cn2)CCN1` [Example 21, ((1S,4S)-5-(3-(6-((R)-3-Methylpiperazin-1-yl)pyridin-3-yl)-1H-pyrazolo[4,3-d]pyrimidin-5-yl)-2,5-diazabicyclo[2.2.1]heptan-2-yl)(pyrrolidin-1-yl)methanone], the IC50 is 100 to 500 nM against ALK2 (aa 147-end) (ALK2 1 mM IC50, 1 mM ATP); less than 100 nM at ALK2 (aa 147-end) (setting [1]); less than 100 nM at ALK2 (aa 147-end) (setting [2]); 500 to 2000 nM at ALK2 (setting [3]); greater than 2000 nM on FGFR3 (UP) (setting [6]); greater than 2000 nM on FGFR1 (UP) (setting [5]). Further, the IC50 on FGFR2 (UP) (setting [7]) was greater than 2000 nM.
With `COC(=O)N1C[C@@H](C)N(c2ncc3[nH]nc(-c4ccc(N5CCN(C)CC5)c(F)c4)c3n2)[C@@H](C)C1` [Example 23, Methyl (3R,5S)-4-(3-(3-fluoro-4-(4-methylpiperazin-1-yl)phenyl)-1H-pyrazolo[4,3-d]pyrimidin-5-yl)-3,5-dimethylpiperazine-1-carboxylate], the IC50 was 100 to 500 nM against ALK2 (aa 147-end) (ALK2 1 mM IC50, 1 mM ATP); less than 100 nM at ALK2 (aa 147-end) (setting [1]); less than 100 nM at ALK2 (aa 147-end) (setting [2]); 100 to 500 nM at ALK2 (setting [3]); 100 to 500 nM at FGFR3 (UP); 100 to 500 nM against FGFR1 (UP). For the same compound, the IC50 on FGFR2 (UP) lay in the range of 100 to 500 nM.
